In publication PMC10788925 (Journal of Medicinal Chemistry, 2023):
Where two headings read alike, the source gives them in different places.

Experiments:
in vitro [1] = settings: human
HEV-3 replicon p6-Gluc = experiment: microbe, parasite or virus in culture; type: cell-based, Hepatitis E virus; settings: for EC50 / EC90: Hepatitis E virus
in vitro [2] = settings: human; remark: listed apart in the source
SARS-CoV-2 = experiment: microbe, parasite or virus in culture; type: cell-based
in vitro [3] = experiment: in vitro
Vero E6 cells = settings: African green monkey (Chlorocebus sp.)
Huh-7 cells = settings: human
RVFV strain MP-12 = experiment: microbe, parasite or virus in culture; type: cell-based; settings: Rift Valley fever virus
CHIKV LR2006-OPY1 = experiment: microbe, parasite or virus in culture; type: cell-based; settings: Chikungunya virus
[4] = Severe acute respiratory syndrome coronavirus 2, Vero C1008, 24 h
[5] = Severe acute respiratory syndrome coronavirus 2, Vero C1008, 48 h
[6] = African green monkey (Chlorocebus sp.)

## COC(=O)[C@H]1[C@@H](O)[C@@]2(O)c3c(F)cc(F)cc3O[C@@]2(c2ccc(OC)cc2)[C@@H]1c1ccccc1 (racemic) [9c, (±)-Methyl (1R,2R,3S,3aR,8bS)-6,8-difluoro-1,8b-dihydroxy-3a-(4-methoxyphenyl)-3-phenyl-2,3,3a,8b-tetrahydro-1H-cyclopenta[b]benzofuran-2-carboxylate]
In vitro [1]
  CC50: > 1000 nM
HepG2 cells; read-out: HEP2G, CC50 (24 h), 24 h
  CC50: > 1000 nM
HepG2 cells; read-out: HEP2G, CC50 (48 h), 48 h
  CC50: > 1000 nM
HEV-3 replicon p6-Gluc; HepG2, 24 h
  EC50: > 1000 nM
  EC90: > 1000 nM
HEV-3 replicon p6-Gluc; HepG2, 24 h, read-out: HEV, EC50 (24 h, nM)
  EC50: > 1000 nM
HEV-3 replicon p6-Gluc; HepG2, 24 h, read-out: HEV, EC90 (24 h, nM)
  EC90: > 1000 nM
HEV-3 replicon p6-Gluc; HepG2, 48 h
  EC50: > 1000 nM
  EC90: > 1000 nM
HEV-3 replicon p6-Gluc; HepG2, 48 h, read-out: HEV, EC50 (48 h, nM)
  EC50: > 1000 nM
HEV-3 replicon p6-Gluc; HepG2, 48 h, read-out: HEV, EC90 (48 h, nM)2
  EC90: > 1000 nM

## COC(=O)[C@H]1[C@@H](O)[C@@]2(O)c3c(Cl)cc(Cl)cc3O[C@@]2(c2ccc(OC)cc2)[C@@H]1c1ccccc1 (racemic) [9da, (±)-Methyl (1R,2R,3S,3aR,8bS)-6,8-dichloro-1,8b-dihydroxy-3a-(4-methoxyphenyl)-3-phenyl-2,3,3a,8b-tetrahydro-1H-cyclopenta[b]benzofuran-2-carboxylate]
In vitro [2]
  CC50: > 1000 nM
In vitro [1]
  CC50 at 24 h: 798 nM
  CC50 at 48 h: 149 nM
SARS-CoV-2; [4]
  EC50: 111 nM
  EC90: 387 nM
SARS-CoV-2; [5]
  EC50: 176 nM
  EC90: 558 nM
In vitro [3]; [6]
  CC50: > 1000 nM
In vitro [3]; chlorocebus sabaeus, CC50
  CC50: > 1000 nM
Vero E6 cells
  CC50: > 1000 nM
Huh-7 cells
  CC50: > 1000 nM
RVFV strain MP-12; Vero C1008, 24 h
  EC50: 102 nM
  EC90: 227 nM
RVFV strain MP-12; Vero C1008, 48 h
  EC50: 143 nM
  EC90: 217 nM
HEV-3 replicon p6-Gluc; HepG2, 24 h
  EC50: 25.4 nM
  EC90: 642 nM
HEV-3 replicon p6-Gluc; HepG2, 48 h
  EC50: 17.5 nM
  EC90: 725 nM
CHIKV LR2006-OPY1; Huh-7, 24 h
  EC50: 18.1 nM
  EC90: 83.4 nM
CHIKV LR2006-OPY1; Huh-7, 48 h
  EC50: 22.4 nM
  EC90: 92.3 nM

## COC(=O)[C@H]1[C@@H](O)[C@@]2(O)c3c(OC)cc(Br)cc3O[C@@]2(c2ccc(OC)cc2)[C@@H]1c1ccccc1 (racemic) [9m, (±)-Methyl (1R,2R,3S,3aR,8bS)-6-bromo-1,8b-dihydroxy-8-methoxy-3a-(4-methoxyphenyl)-3-phenyl-2,3,3a,8b-tetrahydro-1H-cyclopenta[b]benzofuran-2-carboxylate]
In vitro [2]
  CC50: > 1000 nM
In vitro [1]
  CC50 at 24 h: 421 nM
  CC50 at 48 h: 13.8 nM
SARS-CoV-2; [4]
  EC50: 33.9 nM
  EC90: 40.4 nM
SARS-CoV-2; [5]
  EC50: 47.8 nM
  EC90: 80 nM
In vitro [3]; [6]
  CC50: > 1000 nM
In vitro [3]; chlorocebus sabaeus, CC50
  CC50: > 1000 nM
Vero E6 cells
  CC50: > 1000 nM
Huh-7 cells
  CC50: > 1000 nM
HepG2 cells
  cell viability at higher cell density: improved
RVFV strain MP-12; Vero C1008, 24 h
  EC50: 26.6 nM
  EC90: 39.4 nM
RVFV strain MP-12; Vero C1008, 48 h
  EC50: 43.3 nM
  EC90: 53.2 nM
HEV-3 replicon p6-Gluc
  antiviral response at higher cell density: decreased
HEV-3 replicon p6-Gluc; HepG2, 24 h
  EC50: 3.1 nM
  EC90: 40.7 nM
HEV-3 replicon p6-Gluc; HepG2, 48 h
  EC50: 1.4 nM
  EC90: 30.6 nM
CHIKV LR2006-OPY1; Huh-7, 24 h
  EC50: 2.1 nM
  EC90: 12.3 nM
CHIKV LR2006-OPY1; Huh-7, 48 h
  EC50: 2.9 nM
  EC90: 9.8 nM

## CONC(=O)[C@H]1[C@@H](O)[C@@]2(O)c3c(Cl)cc(Br)cc3O[C@@]2(c2ccc(OC)cc2)[C@@H]1c1ccccc1 (racemic) [14f, (±)-(1R,2R,3S,3aR,8bS)-6-Bromo-8-chloro-1,8b-dihydroxy-N-methoxy-3a-(4-methoxyphenyl)-3-phenyl-2,3,3a,8b-tetrahydro-1H-cyclopenta[b]benzofuran-2-carboxamide]
In vitro [2]
  CC50: > 1000 nM
In vitro [1]
  CC50 at 24 h: 407 nM
  CC50 at 48 h: 15.6 nM
SARS-CoV-2; [4]
  EC50: 51.4 nM
  EC90: 920 nM
SARS-CoV-2; [5]
  EC50: 190 nM
  EC90: 340 nM
In vitro [3]; [6]
  CC50: > 1000 nM
In vitro [3]; chlorocebus sabaeus, CC50
  CC50: > 1000 nM
Huh-7 cells
  CC50: > 1000 nM
RVFV strain MP-12; Vero C1008, 24 h
  EC50: 42.1 nM
  EC90: 92.5 nM
RVFV strain MP-12; Vero C1008, 48 h
  EC50: 106 nM
  EC90: 113 nM
HEV-3 replicon p6-Gluc; HepG2, 24 h
  EC50: 4.6 nM
  EC90: 53.4 nM
HEV-3 replicon p6-Gluc; HepG2, 48 h
  EC50: 2.6 nM
  EC90: 30.2 nM
CHIKV LR2006-OPY1; Huh-7, 24 h
  EC50: 3.1 nM
  EC90: 19 nM
CHIKV LR2006-OPY1; Huh-7, 48 h
  EC50: 3.4 nM
  EC90: 20.2 nM
